pIC50: −log10 of the molar value. Where two headings read alike, the source gives them in different places. Square brackets hold non-standard residues; d marks the D form. Peptide text beside a SMILES is read from it. * marks the point of attachment. dPhg = N[C@@H](C(=O)O)c1ccccc1; Tos = Cc1ccc(S(=O)(=O)*)cc1 A value given as a limit tells only on which side of the number the result lay.

Test [1] addresses T1, Plasmin (Homo sapiens, UniProt P00747). Nature of the test: biochemical. Conditions: substrate S-2251. Here is the method: (§1) (1) Evaluation of Antiplasmin Activity
(ii) Determination of prevention activity for S-2251 decomposition
An inhibitor sample is dissolved in a 0.05 M Tris-hydrochloric acid buffer solution (pH = 7.4) to make the total volume to 400 µl. To this solution, 50 pl of a 3 mM S-2251 solution is added and the mixture is incubated at a temperature of 37°C for 5 minutes in a constant temperature bath. Then, 50 pl of a 0.2 casein unit/ml human plasmin is added and the mixture is incubated at a temperature of 37°C for 4 minutes. Thereafter, the reaction is stopped by adding 50 µl of 50% acetic acid.
The absorbance of p-nitroaniline formed in the reaction mixture is determined at 405 nm. Thus, the concentration I50 of the inhibitor sample, at which the absorbance is one half (i.e., 1/2) of that obtained in the absence of the inhibitor, is determined.

Test [2] addresses T1, Plasmin. Nature of the test: biochemical. Here is the method:
as §1
(i) Determination of prevention activity for fibrin decomposition
0.18 M borate-physiological salt buffer solution (pH = 7.4) to make the total volme to 600 pl. To this buffer solution, 200 µl of a 0.2% bovin fibrinogen, 100 µl of a 0.3 cassein unit/ml human […] solution, and 100 µl of a 50 unit/ml bovine thrombin solution, all dissolved in the above-mentioned buffer, are added at a temperature of 37°C in a constant temperature bath. Then, the dissolution time of the fibrin mass formed above is determined.

In the next test the target is human plasma kallikrein (Homo sapiens, UniProt P03952). Nature of the test: Anti-plasma kallikrein activity: prevention of S-2302 decomposition. It is filed as biochemical. The conditions noted are these: Table III, known compounds of Table II; substrate S-2302; *1: 0% Inhibition at the given concentration; read-out: I50 Plasma Kallikrein S-2302. The protocol:
(4) Evaluation of Anti-Plasma Kallikrein Activity
Determination of prevention activity for S―2302 decomposition
An inhibitor sample is dissolved in a 0.05 M Tris-hydrochloric acid buffer solution (pH = 7.8) to make the total volume to 400 pl. To this solution, 50 pl of a 2 mM S-2302 solution is added and the mixture is incubated at a temperature of 37°C for 5 minutes in a constant temperature bath. Then, 50 µl of a 0.12 unit/ ml human plasma kallikrein is added and the mixture is incubated at a temperature of 37°C for 5 minutes. Thereafter, 50 pl of 50% acetic acid is added to terminate the reaction. The absorbance of the p-nitroaniline formed in the reaction mixture is measured at 405 nm. Thus, the concentration 150 of the inhibitor sample, at which the absorbance is one half (i.e., 1/2) of that obtained in the absence of the inhibitor sample, is determined.

Test [3] concerns the target T2, bovine thrombin (Bos taurus, UniProt P00735). Nature of the test: Antithrombin activity: inhibition of fibrin formation from fibrinogen (coagulation time). Format: biochemical. Conditions: Table III, known compounds of Table II; coagulation time extended twice; *1: 0% Inhibition at the given concentration; read-out: I50 Thrombin Fibrinogen. The protocol: (§2) (2) Evaluation of Antithrombin Activity
(i) Determination of inhibition activity against fibrin formation
An inhibitor sample is dissolved in a 0.18 M borate-physiological salt buffer solution (pH = 7.4) to make the total volume to 500 µl. To this solution, 400 µl of a 0.2% bovine fibrinogen solution and 100 µl of a 4 unit/ ml bovine thrombin solution are added at a temperature of 37°C in a constant temperature bath. Thus, a coagulation time is determined. The inhibitor concentraion I50, at which the coagulation time obtained in the absence of the inhibitor is extended twice, is determined.

A further test deals with T3, bovine trypsin (Bos taurus, UniProt P00760).
T3 sequence (P00760 24-246): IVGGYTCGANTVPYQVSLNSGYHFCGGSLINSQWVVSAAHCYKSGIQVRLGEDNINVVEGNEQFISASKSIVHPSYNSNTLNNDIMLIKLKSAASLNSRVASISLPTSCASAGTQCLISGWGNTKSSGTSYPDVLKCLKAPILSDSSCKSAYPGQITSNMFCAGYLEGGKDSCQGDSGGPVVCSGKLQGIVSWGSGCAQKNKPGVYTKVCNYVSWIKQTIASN
Nature of the test: Antitrypsin activity: inhibition of S-2238 decomposition. Format: biochemical. Conditions: Table III, known compounds of Table II; substrate S-2238; *1: 0% Inhibition at the given concentration; read-out: I50 Trypsin S-2238. The protocol: (3) Evaluation of Antitrypsin Activity
Determination of inhibition activity against S-2238 decomposition
An inhibitor sample is dissolved in a 0.05 M Tris-imidazole buffer solution (pH = 8.1) and 125 µl of a 1 mM S―2238 solution is added to make the total volume to 1.20 ml. The mixture is incubated at a temperature of 37°C for 5 minutes in a constant temperature bath. To this mixture, 0.05 ml of bovine trypsin is added and the absorbance, at 405 nm, of the p-nitroaniline formed per minute is determined at a temperature of 37°C by using the so-called initial velocity method. Thus, the concentration 15° of the inhibitor sample, at which the absorbance is one half (i.e., 1/2) of that obtained in the absence of the inhibitor, is determined.

For test [4], the target named is T2, bovine thrombin. Nature of the test: Antithrombin activity: prevention of S-2238 decomposition. Format: biochemical. The conditions noted are these: Table III, known compounds of Table II; substrate S-2238; *1: 0% Inhibition at the given concentration; read-out: I50 Thrombin S-2238. The protocol: as §2
(ii) Determination of prevention activity for S-2238 decomposition
An inhibitor sample is dissolved in a 0.05 M Tris-hydrochloric acid buffer solution (pH = 8.3) to make a total volume to 400 µl. To this solution, 50 µl of a […] S-2238 solution is added and the mixture is incubated at a temperature of 37°C for 5 minutes in a constant temperature bath. Then, 50 µl of a 0.2 unit/ml bovine thrombin solution is added thereto and the absorbance, at 405 nm, of the p-nitroaniline formed per minute is determined at a temperature of 37°C by using the so-called initial velocity method. Thus, the concentration 150 of the inhibitor sample at which the absorbance is one half (i.e., 1/2) of that obtained in the absence of the inhibitor, is determined.

Another test concerns the target human urokinase (Homo sapiens, UniProt P00749). Nature of the test: Antiurokinase activity: prevention of S-2444 decomposition. Format: biochemical. Conditions: Table III, known compounds of Table II; substrate S-2444; *1: 0% Inhibition at the given concentration; read-out: I50 Urokinase S-2444. The protocol:
(5) Evaluation of Antiurokinase Activity
Determination of prevention activity for S-2444 decomposition
An inhibitor sample is dissolved in a 0.05 M Tris-hydrochloric acid buffer solution (pH = 8.8) to make the total volume to 400 pl. To this solution, 50 pl of a 1 mM S―2444 solution is added and the mixture is incubated at a temperature of 37°C for 5 minutes in a constant temperature bath. Then, 50 µl of a 500 unit/ ml human urokinase is added and the mixture is incubated at a temperature of 37°C for 5 minutes. Thereafter, 50 pl of 50% acetic acid is added to terminate the reaction. The absorbance of the p-nitroaniline formed in the reaction mixture is measured at 405 nm. Thus, the concentration 150 of the inhibitor sample, at which the absorbance is one half (i.e., 1/2) of that obtained in the absence of the inhibitor, is determined.

The mark [5] stands for this setting: Table IV, present compounds, plasmin, read-out: I50 S-2251.
Setting [6] is: Table IV, present compounds, plasmin, fibrin decomposition, read-out: I50 Fibrin.
The mark [7] stands for this setting: Table III, known compounds of Table II, fibrin dissolution time extended twice, *1: 0% Inhibition, *2: 19% Inhibition at the concentration, read-out: I50 Plasmin Fibrin.
Where [8] appears, read: Table III, known compounds of Table II, *1: 0% Inhibition at the given concentration, read-out: I50 Plasmin S-2251.

Sequence of human plasma kallikrein (P03952 391-638 limits assumed): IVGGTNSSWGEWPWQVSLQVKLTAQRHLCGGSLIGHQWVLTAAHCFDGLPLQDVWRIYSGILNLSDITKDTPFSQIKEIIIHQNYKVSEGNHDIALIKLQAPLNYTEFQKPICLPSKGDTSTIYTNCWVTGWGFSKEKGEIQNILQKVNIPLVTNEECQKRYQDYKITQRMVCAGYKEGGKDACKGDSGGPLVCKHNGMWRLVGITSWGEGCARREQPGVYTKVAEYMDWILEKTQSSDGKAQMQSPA
Sequence of human plasma kallikrein (P03952 20-390 partner limits assumed): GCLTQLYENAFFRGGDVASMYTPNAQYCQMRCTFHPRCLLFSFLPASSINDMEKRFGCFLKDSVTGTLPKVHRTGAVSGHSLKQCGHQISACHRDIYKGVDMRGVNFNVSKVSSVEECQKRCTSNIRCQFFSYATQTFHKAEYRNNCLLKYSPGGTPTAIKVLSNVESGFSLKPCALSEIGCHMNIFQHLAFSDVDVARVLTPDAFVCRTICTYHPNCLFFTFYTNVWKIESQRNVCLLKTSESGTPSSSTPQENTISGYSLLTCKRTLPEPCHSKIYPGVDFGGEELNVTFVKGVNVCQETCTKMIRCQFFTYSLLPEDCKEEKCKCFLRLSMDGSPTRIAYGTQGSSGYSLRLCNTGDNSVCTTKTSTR
T1 sequence (P00747 581-810 limits assumed): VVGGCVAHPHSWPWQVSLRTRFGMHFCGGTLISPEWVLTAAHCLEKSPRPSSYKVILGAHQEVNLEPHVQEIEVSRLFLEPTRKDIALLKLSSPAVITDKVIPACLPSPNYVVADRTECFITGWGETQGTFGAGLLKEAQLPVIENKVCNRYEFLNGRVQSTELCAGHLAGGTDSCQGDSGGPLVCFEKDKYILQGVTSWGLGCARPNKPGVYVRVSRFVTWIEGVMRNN
T1 sequence (P00747 97-580 partner limits assumed): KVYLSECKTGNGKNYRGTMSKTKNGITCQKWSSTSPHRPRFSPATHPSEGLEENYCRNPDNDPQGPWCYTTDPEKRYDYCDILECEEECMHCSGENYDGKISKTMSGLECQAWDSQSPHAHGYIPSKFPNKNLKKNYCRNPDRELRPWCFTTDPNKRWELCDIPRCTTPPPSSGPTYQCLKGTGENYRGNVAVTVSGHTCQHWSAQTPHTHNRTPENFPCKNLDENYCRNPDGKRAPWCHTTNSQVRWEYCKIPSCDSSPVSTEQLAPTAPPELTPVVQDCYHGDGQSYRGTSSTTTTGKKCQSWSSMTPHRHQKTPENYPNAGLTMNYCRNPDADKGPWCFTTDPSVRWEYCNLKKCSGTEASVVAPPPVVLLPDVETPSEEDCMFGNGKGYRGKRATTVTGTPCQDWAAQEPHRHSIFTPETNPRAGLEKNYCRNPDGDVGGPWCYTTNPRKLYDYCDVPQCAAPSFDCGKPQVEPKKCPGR

On to `CN(C)c1cccc2c(S(=O)(=O)N[C@@H](CCCCN)C(=O)N3CCC(Cc4ccccc4)CC3)cccc12` [compound 48], for which the pIC50 on Plasmin [1] (setting [5]) is 3.89.

As to `Cc1ccc(S(=O)(=O)N[C@@H](CCCCN)C(=O)Nc2cccc(C#N)c2)cc1` [compound 29], the figures for the pIC50 at Plasmin [2] (setting [6]) and on Plasmin [1] (setting [5]) were 3.47 and 3.32, respectively.

For `CC1CCCN(C(=O)[C@H](CCCCN)NS(=O)(=O)c2cccc3c(N(C)C)cccc23)C1` (some centres unmarked) [compound 37], the pIC50 at Plasmin [2] (setting [6]) is 3.14; on Plasmin [1] (setting [5]) it was 2.70.

For `Cc1ccc(S(=O)(=O)N[C@@H](CCCCN)C(=O)Nc2cc(C)nc3ccccc23)cc1` [compound 42], on Plasmin [1] (setting [5]), the pIC50 is 3.64.

`NCCCC[C@H](NS(=O)(=O)c1cccc2ccccc12)C(=O)Nc1ccc([N+](=O)[O-])cc1` [Compound No. 10]: the pIC50 on Plasmin [2] (setting [6]) is 3.51; on Plasmin [1] (setting [5]), 2.77.

For `CCOC(=O)c1c(C)cc(NC(=O)[C@H](CCCCN)NS(=O)(=O)c2ccc(C)cc2)cc1C` [compound 40], the pIC50 is 3.36 at Plasmin [2] (setting [6]) and 3.23 on Plasmin [1] (setting [5]).

On to `Cc1ccc(S(=O)(=O)N[C@@H](CCCCN)C(=O)Nc2ccc(C(F)(F)F)cc2)cc1` [compound 32], for which the pIC50 on Plasmin [2] (setting [6]) is 3.37; on Plasmin [1] (setting [5]), 3.22.

With `NCCCC[C@H](NC(=O)c1ccccc1)C(N)=O` [Compound No. 8], the pIC50 at human plasma kallikrein was under 3.00; at bovine thrombin [3], under 3.00; on Plasmin [2] (setting [7]), under 3.00; at Plasmin [2] (setting [6]) it was 3.85; on Plasmin [1] (setting [8]), under 3.00; on Plasmin [1] (setting [5]), 3.60. The pIC50 at bovine trypsin is under 3.52; on bovine thrombin [4], under 3.00; on human urokinase, under 3.00.

With `Cc1ccc(S(=O)(=O)N[C@@H](CCCCN)C(=O)N2CCC(Cc3ccccc3)CC2)cc1` [compound 21], the pIC50 was 3.82 at Plasmin [2] (setting [6]) and 3.52 on Plasmin [1] (setting [5]).

For `Cc1ccc(S(=O)(=O)N[C@@H](CCCCN)C(=O)O)cc1` [compound 5], the results for the pIC50 on Plasmin [2] (setting [7]) and at Plasmin [1] (setting [8]) were 3.00 and 2.85, respectively.

As to `Cc1ccc(S(=O)(=O)N[C@@H](CCCCN)C(=O)Nc2ccc(Oc3ccccc3)cc2)cc1` [compound 31], the results for the pIC50 at Plasmin [2] (setting [6]) and at Plasmin [1] (setting [5]) were 3.82 and 3.11, respectively.

In the case of `Cc1ccc(S(=O)(=O)N[C@@H](CCCCN)C(=O)Nc2cccc(Cl)c2)cc1` [compound 18], the pIC50 is 3.46 on Plasmin [2] (setting [6]) and 3.22 at Plasmin [1] (setting [5]).

Regarding `CCOC(=O)c1ccc(NC(=O)[C@H](CCCCN)NS(=O)(=O)c2ccc(C)cc2)cc1` [compound 33], the pIC50 at Plasmin [2] (setting [6]) is 3.27; at Plasmin [1] (setting [5]), 3.19.

As to `NCCCCCC(=O)N[C@@H](CCCCN)C(=O)O` [Compound No. 7], the pIC50 on human plasma kallikrein is under 3.00; on bovine thrombin [3], under 3.00; on Plasmin [2] (setting [7]), under 3.00; at Plasmin [2] (setting [6]), 3.52; at Plasmin [1] (setting [8]), under 3.00; at Plasmin [1] (setting [5]) it was 3.46. Further, the pIC50 at bovine trypsin is under 3.70; at bovine thrombin [4], under 3.00; at human urokinase, under 3.00.

As for `Cc1ccc(S(=O)(=O)N[C@H](CCCCN)C(=O)Nc2ccc(C(=O)c3ccccc3)cc2)cc1` [compound 20], the pIC50 on Plasmin [2] (setting [6]) was 3.00; on Plasmin [1] (setting [5]), 2.70.

As to `Cc1ccc(S(=O)(=O)N[C@@H](CCCCN)C(=O)Nc2ccc(Cl)c(Cl)c2)cc1` [compound 35], the figures for the pIC50 on Plasmin [2] (setting [6]) and on Plasmin [1] (setting [5]) were 3.72 and 3.43, respectively.

On to `CCOC(=O)[C@H](NC(=O)[C@H](CCCCN)NS(=O)(=O)c1ccc(C)cc1)c1ccccc1` [compound 22] (Tos-Lys-[dPhg]-OEt), for which the figures for the pIC50 on Plasmin [2] (setting [6]) and at Plasmin [1] (setting [5]) were 3.22 and 3.19, respectively.

For the compound `NCCCC[C@H](NS(=O)(=O)c1ccccc1)C(N)=O` [compound 4], the pIC50 was under 3.00 on human plasma kallikrein; under 3.00 at bovine thrombin [3]; under 3.00 at Plasmin [2] (setting [7]); under 3.00 on Plasmin [1] (setting [8]); under 3.82 on bovine trypsin; under 3.00 on bovine thrombin [4]. Besides, the pIC50 on human urokinase is under 3.00.

Values taken from EP0183271B1, “Lysin derivative and proteinase inhibitor” (Okamoto, Shosuke, priority 1984, dated 1986).
